{"source": "paper PMC10802587", "about": "(bioRxiv, 2024)", "key": {"[1]": {"tested_on": "global palmitoylation in infected red blood cells", "experiment": "Global palmitoylation", "assay_type": "cell-based, P. falciparum", "conditions": "after 16 hours 17-ODYA incubation"}, "[2]": {"target": "T1, hMAGL (Homo sapiens, UniProt Q99685)", "T1 sequence (Q99685 1-303)": "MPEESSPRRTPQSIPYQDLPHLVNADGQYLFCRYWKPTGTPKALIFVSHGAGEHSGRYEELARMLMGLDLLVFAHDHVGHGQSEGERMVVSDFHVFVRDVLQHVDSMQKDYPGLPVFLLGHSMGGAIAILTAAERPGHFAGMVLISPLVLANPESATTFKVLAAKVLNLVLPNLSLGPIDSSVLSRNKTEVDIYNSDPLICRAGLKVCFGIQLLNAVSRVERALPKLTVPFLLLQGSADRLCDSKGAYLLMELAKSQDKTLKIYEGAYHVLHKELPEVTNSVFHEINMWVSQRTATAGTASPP", "experiment": "hMAGL inhibition assay", "assay_type": "biochemical"}, "[3]": {"tested_on": "synchronized ring stage W2 parasites", "experiment": "72-hour parasite growth", "assay_type": "cell-based, P. falciparum", "conditions": "for EC50: Plasmodium falciparum"}, "[4]": {"tested_on": "W2 ring stage cultures", "experiment": "Stage specific killing assay", "assay_type": "cell-based, P. falciparum", "conditions": "10 μM, ring stage W2 parasites, smears every twelve hours"}, "[5]": {"target": "recombinant PfMAGL (Plasmodium falciparum, UniProt Q8IJ22)", "sequence (Q8IJ22 1-359)": "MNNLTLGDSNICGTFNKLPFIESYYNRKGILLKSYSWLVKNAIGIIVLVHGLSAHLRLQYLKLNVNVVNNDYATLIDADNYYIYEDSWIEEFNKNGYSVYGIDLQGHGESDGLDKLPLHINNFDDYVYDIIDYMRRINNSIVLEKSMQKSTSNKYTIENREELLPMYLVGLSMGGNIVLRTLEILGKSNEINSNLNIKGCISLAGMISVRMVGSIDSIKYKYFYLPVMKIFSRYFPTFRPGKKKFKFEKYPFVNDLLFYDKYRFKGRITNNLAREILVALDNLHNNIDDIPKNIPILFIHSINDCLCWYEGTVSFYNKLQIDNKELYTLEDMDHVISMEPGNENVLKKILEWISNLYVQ", "assay_type": "biochemical, P. falciparum"}, "[6]": {"tested_on": "synchronized W2 ring stage parasites", "experiment": "Lipidomic analysis of treated parasites", "assay_type": "cell-based, P. falciparum", "conditions": "900 nM, 24 hours versus DMSO (Figure 5B)"}, "[7]": {"tested_on": "abH112 cKD and control NF54 parasites", "experiment": "Susceptibility of abH112 cKD and NF54 parasites +/- aTC", "assay_type": "cell-based, P. falciparum", "conditions": "presence and absence of aTC"}, "[8]": {"tested_on": "Human Foreskin Fibroblasts", "experiment": "Human cell cytotoxicity assay", "assay_type": "cell-based", "conditions": "at concentrations up to 50 μM, 72 h, HFF"}, "[9]": {"tested_on": "3D7 ring-stage parasites", "experiment": "P. falciparum rate of kill assay", "assay_type": "cell-based", "conditions": "compared with chloroquine, pyrimethamine, atovaquone"}, "[10]": {"tested_on": "SalA resistant Dd2-Polδ lines (PRELI domain-containing protein mutants)", "experiment": "In vitro drug susceptibility assay, SalA selected PRELI mutant lines", "assay_type": "cell-based, P. falciparum"}, "[11]": {"tested_on": "parasite food vacuole", "experiment": "Food vacuole visualization", "assay_type": "cell-based, P. falciparum", "conditions": "5 μM for 16 hrs; reduction not significant"}, "[12]": {"tested_on": "W2 ring stage cultures", "conditions": "ref Yoo et al., 2020; cited from earlier work"}, "[13]": {"tested_on": "3D7 ring-stage parasites", "conditions": "known fast, medium, slow acting inhibitors; ref Sanz et al., 2012; cited from earlier work"}, "[14]": {"conditions": "72 h, read-out: EC50 parasite growth"}}, "note": "“Also recorded” adds a separate entry of the source. Like-named read-outs stand apart in the source and are kept apart here.", "data": [{"smiles": "CCCCCCCCCCCCCCC(Br)C(=O)O", "note": "(stereo not drawn) [Compound 2-BP, 2-bromopalmitate, reference compound]", "values": [{"measurement": "changes in global palmitoylation", "setting": "[1]", "result": "changes in patterns of palmitoylation"}]}, {"smiles": "C#CCCCCP(=O)(OCC)Oc1ccc(S(=O)(=O)F)cc1", "note": "(stereo not drawn) [Compound 2]", "values": [{"measurement": "potency against hMAGL (in words)", "setting": "[2]", "result": "highest potency"}, {"measurement": "EC50", "setting": "[3]; [14]", "result": 1600, "unit": "nM"}]}, {"smiles": "CCCCCCCCCCCCCCCP(=O)(OCC)Oc1c(F)cccc1F", "note": "(stereo not drawn) [Compound 21]", "values": [{"measurement": "changes in global palmitoylation", "setting": "[1]", "result": "did not observe any changes in global palmitoylation"}, {"measurement": "blood stage where growth was arrested", "setting": "[4]", "result": "progressed through the blood stage lifecycle"}, {"measurement": "parasite killing", "setting": "[3]; at concentrations up to 20 μM, 72 hours, W2", "result": "no killing"}, {"measurement": "potency against recombinant PfMAGL (in words)", "setting": "[5]", "result": "picomolar inhibitors; also recorded: pM inhibitors"}]}, {"smiles": "CCCCCCCCCCCCCCCP(=O)(OCC)Oc1cc(F)cc(F)c1", "note": "(stereo not drawn) [Compound 22]", "values": [{"measurement": "changes in lipid classes", "setting": "[6]", "result": "downregulation of both ceramides and diacylglycerides"}, {"measurement": "effect of abH112 knockdown on parasite susceptibility to compound", "setting": "[7]", "result": "did not affect parasite susceptibility"}, {"measurement": "impact on mammalian cell viability", "setting": "[8]", "result": "no impact on mammalian cell viability"}, {"measurement": "rate of kill (in words)", "setting": "[9]", "result": "faster than pyrimethamine, but not as fast as chloroquine"}, {"measurement": "changes in global palmitoylation", "setting": "[1]", "result": "did not observe any changes in global palmitoylation"}, {"measurement": "blood stage where growth was arrested", "setting": "[4]", "result": "arrested in growth at 24 hours"}, {"measurement": "increase in EC50, PRELI mutant parasites compared to Dd2-Polδ parental line", "setting": "[10]", "result": "7–10 fold"}, {"measurement": "food vacuole size", "setting": "[11]", "result": "small reduction in food vacuole size"}, {"measurement": "rescue of killing phenotype by palmitate and oleate supplementation", "setting": "[3]; 5 µM compound, 30 µM palmitate, oleate or both, 72 hours", "result": "did not rescue"}, {"measurement": "drop in potency, 1 hour pulse compared to continuous treatment", "setting": "[3]; 1 hour treatment followed by washout", "result": "ten-fold drop in potency"}, {"measurement": "EC50", "setting": "[3]; [14]", "result": 188, "unit": "nM"}, {"measurement": "EC50", "setting": "[3]; read-out: EC50 after 1 hour treatment and washout", "result": 1330, "unit": "nM"}, {"measurement": "potency against recombinant PfMAGL (in words)", "setting": "[5]", "result": "picomolar inhibitors; also recorded: pM inhibitors"}]}, {"smiles": "CCCCCCCCCCC[C@@H](C[C@@H]1OC(=O)[C@H]1CCCCCC)OC(=O)[C@H](CC(C)C)NC=O", "note": "[Orlistat]", "values": [{"measurement": "blood stage where progression is blocked", "setting": "[12]", "result": "block progression at the late schizont stage"}]}, {"smiles": "O=C1C(O)=C([C@H]2CC[C@H](c3ccc(Cl)cc3)CC2)C(=O)c2ccccc21", "note": "[atovaquone]", "values": [{"measurement": "rate of kill class of known inhibitors", "setting": "[13]", "result": "slow"}]}, {"smiles": "CCN(CC)CCCC(C)Nc1ccnc2cc(Cl)ccc12", "note": "(stereo not drawn) [chloroquine]", "values": [{"measurement": "rate of kill class of known inhibitors", "setting": "[13]", "result": "fast"}]}, {"smiles": "CCc1nc(N)nc(N)c1-c1ccc(Cl)cc1", "note": "[pyrimethamine]", "values": [{"measurement": "rate of kill class of known inhibitors", "setting": "[13]", "result": "medium"}]}]}
